ChEMBL document CHEMBL1136430, “Chain-branched acyclic phenethylthiocarbamates as vanilloid receptor antagonists” (Bioorg Med Chem Lett, 2003)

Assays:
Vanilloid receptor [1] = molecular target: T1, Vanilloid receptor (Rattus norvegicus, UniProt Q9ERZ8+Q9WUD2+O35433); assay: Ability to cause [Ca2+] influx in neonatal rat cultured spinal sensory neurons.; type: functional
Vanilloid receptor [2] = molecular target: T1, Vanilloid receptor; assay: Ability to inhibit [Ca2+] influx neonatal rat cultured spinal sensory neurons.; type: functional

EC50 (Vanilloid receptor [1]) [µM]	IC50 (Vanilloid receptor [2]) [µM]	Compound
> 100	6.3	CCC(CCc1ccc(O)c(OC)c1)O/C(S)=N/CCc1ccccc1 (stereo not given)
> 100	10.7	COc1cc(CCC(CCc2ccc(C(F)(F)F)cc2)O/C(S)=N/CCc2ccccc2)ccc1O (stereo not given)
> 100	> 30	CCC(CCc1ccc(O)c(OC)c1)CC(=O)NCCc1ccccc1 (stereo not given)
> 100	27.9	CCCC(CCc1ccc(O)c(OC)c1)O/C(S)=N/CCc1ccccc1 (stereo not given)
> 100	> 30	COc1cc(CC(C)O/C(S)=N/CCc2ccccc2)ccc1O (stereo not given)
> 100	19.2	COc1cc(CCC(CCc2ccccc2)O/C(S)=N/CCc2ccccc2)ccc1O (stereo not given)
> 100	27.2	CCC(CCc1ccc(O)c(OC)c1)N(C)/C(S)=N/CCc1ccccc1 (stereo not given)
> 100	> 30	CCC(CCc1ccc(O)c(OC)c1)NC(=O)NCCc1ccccc1 (stereo not given)
> 100	> 30	CCC(CCc1ccc(O)c(OC)c1)N(CCc1ccccc1)/C(S)=N/CCc1ccccc1 (stereo not given)
> 100	> 30	CCC(CCc1ccc(O)c(OC)c1)OC(=O)NCCc1ccccc1 (stereo not given)
> 100	> 30	COc1cc(CCCC(C)O/C(S)=N/CCc2ccccc2)ccc1O (stereo not given)
> 100	> 30	CCC(CCc1ccc(O)c(OC)c1)C/C(S)=N/CCc1ccccc1 (stereo not given)
> 100	25	COc1cc(CCC(Cc2ccccc2)O/C(S)=N/CCc2ccccc2)ccc1O (stereo not given)
> 100	> 30	COc1cc(CCC(O/C(S)=N/CCc2ccccc2)c2ccccc2)ccc1O (stereo not given)
> 100	20.9	CCC(CCc1ccc(O)c(OC)c1)N(Cc1ccccc1)/C(S)=N/CCc1ccccc1 (stereo not given)
> 100	> 30	COc1cc(CCCO/C(S)=N/CCc2ccccc2)ccc1O
> 100	> 30	COc1cc(CCC(CCCc2ccccc2)O/C(S)=N/CCc2ccccc2)ccc1O (stereo not given)
> 100	9.9	COc1cc(CCC(C)O/C(S)=N/CCc2ccccc2)ccc1O (stereo not given)
> 100	28.5	CCC(CCc1ccc(O)c(OC)c1)/N=C(\S)NCCc1ccccc1 (stereo not given)
> 100	0.6	Oc1cc2c(cc1O)CN(C(=S)NCCc1ccc(Cl)cc1)CCC2 [CAPSAZEPINE]
